US20230285570A1, “THERAPEUTICALLY USEFUL CURE-PRO MOLECULES FOR E3 LIGASE MEDIATED DEGRADATION OF PROTEINS, AND METHODS OF MAKING AND USING THEM” (CORNELL UNIVERSITY, priority 2020, published 2023)
“Also recorded” adds a separate entry of the source.

Legend:
[1] = target: T1, c-MYC (Homo sapiens, UniProt P01106); test: CURE-PRO-mediated c-MYC degradation in HT29 cells, Western blot; type: cell-based; design: endogenous in cells; host or cells: HT29
Procedure: (§1) Namalwa, Ramosm HeLa, MCF7, or HT29 HCT116 cells (2.5-3×10^6) were treated for 24 hours with the indicated compounds solubilized in DMSO. The cells were washed in ice-cold PBS and were then lysed in RIPA lysis buffer (150 mM NaCl, 5 mM EDTA, 1% NP-40, 0.5% sodium deoxycholate, 0.1% SDS, 50 mM Tris, pH 8.0.) with Roche protease inhibitor complete cocktail and phosphatase inhibitors (10 mM sodium fluoride, 10 mM sodium pyrophosphate, 1 mM sodium orthovanadate and 20 mM β-glycerophosphate). The total protein concentrations were determined by Bradford Protein Assay (Pierce) and 10-20 μg of protein was loaded onto 4-15% Tris-Glycine gradient gels (Biorad). After standard gel electrophoresis, the separated proteins were transferred to PVDF membrane by wet transfer. The immunoblots were then blocked for 1 hour in 5% skim milk in TBST or 5% BSA in TBST, according to manufacturer's instructions, before an overnight incubation at 4° C. with indicated antibodies and membranes. Membranes were then incubated with the appropriate horseradish peroxidase-conjugated secondary antibodies (1:5,000 dilution) for 1 h at room temperature and the bands were visualized using the Clarity Max Western ECL Substrate (Biorad) and the ChemiDoc Imaging System (Biorad). Signal was detected with ECL Western Blotting Substrate (Pierce) and X-ray film processed with a Konica SRX-101 X-ray film processor or captured by Bio-Rad's Chemidoc Imaging system.
HT29 cells (2.5×10^6) were treated for 24 h with the compounds solubilized in DMSO. Compounds were added at 10 nM-10 μM each, as indicated in the description of the figures. Standardized protein samples were electrophoresed and imaged as described in the immunoblotting section above. c-MYC monomers (10058-F4 derivatives comprising catechol linkers), and CRBN ligands, 8048 and 8049 (pomalidomide derivatives comprising boronic acid linkers) combined in a 1:1 ratio.
HT29 cells (2.5×10^6) were treated for 24 h with the compounds solubilized in DMSO. Compounds were added at 100 nM-10 μM each.
(§2) HT29 cells (2.5×10^6) were treated for 24 h with the compounds solubilized in DMSO. Compounds were added at 100 nM-10 μM each. Standardized protein samples were electrophoresed and imaged as described in the immunoblotting section above. c-MYC monomer, MYC-E1, (a 10058-F4 derivative comprising boronic acid linkers), and CRBN ligands, 8046, 8047 and 8066 (pomalidomide derivatives comprising diol linkers) combined in a 1:1 ratio.
as §2, with “monomers, MYC-E6 (FIG. 90), MYC-E10 (FIG. 91), and MYC-E16 (FIG. 92) (10074-G5 derivatives” for “monomer, MYC-E1, (a 10058-F4 derivative”
(§3) HT29 cells (2.5×10^6) were treated for 24 h with the compounds solubilized in DMSO. Compounds were added at 10 nM-10 μM each. Standardized protein samples were electrophoresed and imaged as described in the immunoblotting section above. c-MYC monomer, MYC-N16 (FIG. 93) (10074-G5 derivatives comprising diol linkers), and VHL ligands, 8297 and 8298 (VH-298 derivatives comprising boronic acid linkers) were combined in a 1:1 ratio.
as §3, with “monomers, MYC-E7” for “monomer, MYC-N16”, “96), MYC-E10 (FIG. 97), and MYC-E17 (FIG. 98),” for “93)”, “boronic acid” for “diol”, “diol” for “boronic acid”

[2] = target: T1, c-MYC; test: Summary of C-MYC degradation by CURE-PRO pairs, estimated from Western Blot or WES; type: cell-based; design: endogenous in cells; host or cells: HT29; conditions: for Degradation of C-MYC, combination with CRBN ligand 8046: Table 7, aryl-boronic acid MYC ligand + 8046; for Degradation of C-MYC, combination with CRBN ligand 8047: Table 7, aryl-boronic acid MYC ligand + 8047; for Degradation of C-MYC, combination with CRBN ligand 8048: Table 10, aromatic 1,2-diol MYC ligand + 8048; for Degradation of C-MYC, combination with CRBN ligand 8049: Table 10, aromatic 1,2-diol MYC ligand + 8049
Procedure: as §1
WES Simple analysis was performed on WES system (ProteinSimple-Biotechne) according to the manufacturer's instructions. Total protein concentrations of cell lysates were determined by the Pierce BCA kit (Thermo Fisher). 3 μL of 0.3 μg/μL of the protein lysate was loaded onto a 12- to 230-kDa WES assay plate (ProteinSimple) where 300 nL sample was withdrawn through a capillary, subjected to electrophoretic separation of proteins by size, and followed by the simultaneous, HRP-based detection of proteins using the Anti-Rabbit Detection Module (Proteinsimple: #DM-001). The electropherograms were checked then the automatic peak detection was manually corrected if it was required.
A black check mark indicates efficacy of 30% to 70% or higher protein degradation.

[3] = 1:1 with CRBN ligand 8046, HT29, 24 h, 100 nM-10 μM each
[4] = 1:1 with CRBN ligand 8047, HT29, 24 h, 100 nM-10 μM each
[5] = 1:1 with CRBN ligand 8066, HT29, 24 h, 100 nM-10 μM each
[6] = 1:1 with VHL ligand 8298, HT29, 24 h, 10 nM-10 μM each
[7] = 1:1 with CRBN ligand 8048, HT29, 24 h, 10 nM-10 μM each
[8] = c-MYC monomer alone, HT29, 24 h, 10 nM-10 μM

T1 sequence (P01106 whole entry): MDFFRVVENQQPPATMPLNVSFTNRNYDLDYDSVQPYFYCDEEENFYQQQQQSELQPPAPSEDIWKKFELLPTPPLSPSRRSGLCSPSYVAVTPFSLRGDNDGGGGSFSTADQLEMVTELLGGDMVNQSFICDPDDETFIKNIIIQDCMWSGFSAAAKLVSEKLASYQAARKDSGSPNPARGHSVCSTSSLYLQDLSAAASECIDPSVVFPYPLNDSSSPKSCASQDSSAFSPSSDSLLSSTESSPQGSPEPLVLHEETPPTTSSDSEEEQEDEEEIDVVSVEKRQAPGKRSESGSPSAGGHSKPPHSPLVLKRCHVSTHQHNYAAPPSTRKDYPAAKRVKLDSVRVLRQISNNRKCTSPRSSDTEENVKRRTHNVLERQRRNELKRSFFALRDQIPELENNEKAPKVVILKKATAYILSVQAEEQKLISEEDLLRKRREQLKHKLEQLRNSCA

CCc1ccc(/C=C2\SC(=O)N(Cc3cccc(B(O)O)c3)C2=O)cc1 [MYC-E1]
c-MYC degradation [1, 3]: Some degradation is seen; also recorded: causes degradation of c-MYC
c-MYC degradation [1, 4]: Some degradation is seen; also recorded: no degradation was observed
c-MYC degradation [1, 5]: no degradation was observed
Degradation of C-MYC, combination with CRBN ligand 8046 [2]: √ (A black check mark indicates efficacy of 30% to 70% or higher protein degradation)
Degradation of C-MYC, combination with CRBN ligand 8066 ([2]; Table 7, aryl-boronic acid MYC ligand + 8066): √ (A black check mark indicates efficacy of 30% to 70% or higher protein degradation)

O=[N+]([O-])c1ccc(Nc2ccccc2-c2ccc(B(O)O)cc2)c2nonc12 [MYC-E6]
c-MYC degradation [1, 3]: no degradation was observed
c-MYC degradation [1, 4]: caused degradation of c-MYC
c-MYC degradation [1, 5]: no degradation was observed
Degradation of C-MYC, combination with CRBN ligand 8046 [2]: √ (A black check mark indicates efficacy of 30% to 70% or higher protein degradation)
Degradation of C-MYC, combination with CRBN ligand 8047 [2]: √ (A black check mark indicates efficacy of 30% to 70% or higher protein degradation)

O=C(NCc1cccc(B(O)O)c1)c1ccc(Nc2ccc([N+](=O)[O-])c3nonc23)cc1 [MYC-E10]
c-MYC degradation [1, 3]: caused c-MYC degradation
c-MYC degradation [1, 6]: caused degradation of c-MYC
c-MYC degradation ([1]; 1:1 with VHL ligand 8305, HT29, 24 h, 10 nM-10 μM each): caused loss of c-MYC protein
Degradation of C-MYC, combination with CRBN ligand 8046 [2]: √ (A black check mark indicates efficacy of 30% to 70% or higher protein degradation)

Cc1ccc(CNC(=O)c2ccccc2Nc2ccc([N+](=O)[O-])c3nonc23)cc1B(O)O [MYC-E16]
c-MYC degradation [1, 4]: Some degradation is seen; also recorded: caused c-MYC degradation
Degradation of C-MYC, combination with CRBN ligand 8047 [2]: √ (A black check mark indicates efficacy of 30% to 70% or higher protein degradation)

CCc1ccc(/C=C2\SC(=O)N(CCc3cccc(O)c3O)C2=O)cc1 [MYC-N4]
c-MYC degradation [1, 7]: caused c-MYC degradation
c-MYC degradation [1, 8]: there is no degradation of c-MYC
Degradation of C-MYC, combination with CRBN ligand 8048 [2]: √ (A black check mark indicates efficacy of 30% to 70% or higher protein degradation)

CCc1ccc(/C=C2\SC(=O)N(CCNC(=O)c3ccc(O)c(O)c3)C2=O)cc1 [MYC-N7]
c-MYC degradation [1, 7]: cause c-MYC protein degradation; also recorded: caused degradation of c-MYC
c-MYC degradation ([1]; 1:1 with CRBN ligand 8049, HT29, 24 h, 10 nM-10 μM each): cause c-MYC protein degradation; also recorded: caused degradation of c-MYC
c-MYC degradation [1, 8]: there is no degradation of c-MYC
Degradation of C-MYC, combination with CRBN ligand 8049 [2]: √ (A black check mark indicates efficacy of 30% to 70% or higher protein degradation)

O=C(NCc1cccc(O)c1O)c1ccccc1Nc1ccc([N+](=O)[O-])c2nonc12 [MYC-N16]
c-MYC degradation [1, 7]: caused c-MYC degradation
c-MYC degradation ([1]; 1:1 with VHL ligand 8297, HT29, 24 h, 10 nM-10 μM each): caused degradation of c-MYC
c-MYC degradation [1, 6]: caused degradation of c-MYC
c-MYC degradation [1, 8]: there is no degradation of c-MYC; also recorded: no loss of c-MYC protein was observed
Degradation of C-MYC, combination with CRBN ligand 8048 [2]: √ (A black check mark indicates efficacy of 30% to 70% or higher protein degradation)
Degradation of C-MYC, combination with MDM2 ligand 8312 ([2]; Table 11, aromatic 1,2-diol MYC ligand + 8312): √ (A black check mark indicates efficacy of 30% to 70% or higher protein degradation)
Degradation of C-MYC, combination with VHL ligand 8297 ([2]; Table 12, aromatic 1,2-diol MYC ligand + 8297): √ (A black check mark indicates efficacy of 30% to 70% or higher protein degradation)
Degradation of C-MYC, combination with VHL ligand 8298 ([2]; Table 12, aromatic 1,2-diol MYC ligand + 8298): √ (A black check mark indicates efficacy of 30% to 70% or higher protein degradation)

CCc1ccc(/C=C2\SC(=O)N(CC[C@H]3C[C@@H]4C[C@H]3[C@@H](O)[C@H]4O)C2=O)cc1 [MYC-N23]
c-MYC degradation [1, 7]: caused c-MYC degradation
c-MYC degradation [1, 8]: there is no degradation of c-MYC
Degradation of C-MYC, combination with CRBN ligand 8049 [2]: √ (A black check mark indicates efficacy of 30% to 70% or higher protein degradation)

CCc1ccc(/C=C2\CC(=O)N(CCNC(=O)[C@H]3C[C@@H]4C[C@H]3[C@@H](O)[C@H]4O)C2=O)cc1 [MYC-N29]
c-MYC degradation [1, 7]: caused c-MYC degradation
c-MYC degradation [1, 8]: there is no degradation of c-MYC
Degradation of C-MYC, combination with CRBN ligand 8048 [2]: √ (A black check mark indicates efficacy of 30% to 70% or higher protein degradation)
